Like-named read-outs stand apart in the source and are kept apart here.
Tests used:
[1] = test system: ethanol withdrawal-induced seizures in C57BL/6 mice; test: Ethanol withdrawal-induced seizures; type: in vivo; details: i.p. at 0700, 1100 and 1400 hours; (±)HA-966 3, 10 or 17 mg/kg; 7-Cl kynurenic acid 10, 17 or 30 mg/kg; carbamazepine 17, 30 or 50 mg/kg
Excerpt: Male C57BL/6 mice were housed individually. One group of mice were each given a measured amount of liquid diet (BioServ) containing 6.7% ethanol (v/v) and a second, control group of mice each received the same diet with maltodextrin substituted isocalorically for ethanol, as their sole nutrient source for 7 days. A description of such a test can be found in Grant, K. A., et al., “ETHANOL WITHDRAWAL SEIZURES AND THE NMDA RECEPTOR COMPLEX,” Eur. J. Pharmacol., 176 289–296, (1990), the relevant disclosures of which are incorporated herein by reference. Pair-fed mice were given a volume of liquid diet equal to the average volume that the ethanol-fed mice consumed on the previous day. This treatment regimen produces mice that are functionally tolerant to and physically dependent on ethanol. Beginning at 0700 hours on the eighth day of the diet, ethanol-containing diet was replaced with control liquid diet (“withdrawal”).
Withdrawal seizure severity was assessed by measuring the incidence of handling-induced and spontaneous seizures, which were rated on a rating scale of 0 to 4, modified from a rating scale described by Grant, K. A., et al. in the above cited article. The rating scale was as follows: 0, little or no reaction; 1, slight jerkiness upon handling; 2, excitability increasing in magnitude to a clonic-tonic seizure; 3, spontaneous or instantaneous clonic-tonic seizure; 4, death while in a seizure. The mice were rated for seizure severity at 2, 4, 6, 7, 8, 9, 10, 11, 12 and 24 hours after ethanol withdrawal. Groups of ethanol-fed mice were injected intraperitoneally at 0700, 1100 and 1400 hours with saline, 3, 10 or 17 mg/kg (±)HA-966 (FIG. 5A) or 10, 17 or 30 mg/kg 7-Cl kynurenic acid (FIG. 5B).
Male C57BL/6 mice were fed ethanol in a liquid diet and the withdrawal seizure severity was assessed as described in EXAMPLE 5. Groups of ethanol-fed mice received a single injection (i.p.) of either vehicle (4% Tween-80, 0.5% carboxymethylcellulose in 0.9% saline) alone or of 100 mg/kg DCUK-OMe suspended in the vehicle administered at 0900 hours. The results are presented in FIG. 6A as the median withdrawal scores of vehicle-injected (N=14) or DCUK-OMe injected (N=6) mice in which * denotes P<0.05, statistically compared to vehicle-injected mice, in the Mann-Whitney U test. FIG. 6B presents the same data as the total withdrawal score, defined as the area enclosed by the curve connecting median withdrawal scores plotted against time as in FIG. 6A. The mean total withdrawal scores±SEM for the vehicle-injected group and DCUK-OMe-injected groups are plotted in which * denotes P<0.05, statistically compared to vehicle-injected mice, by the Student t-test.

naive C57BL/6 mice = test: Accelerating rotarod, C57BL/6 mice; type: in vivo; details: 50 mg/kg i.p., 15 to 120 min after injection
Method: Naive C57BL/6 mice were trained to remain on an accelerating rotarod (diameter 3 cm, 0–30 rpm over 5 min) for six consecutive trials. A description of this test for the acute incoordinating/ataxic effects of sedative/hypnotic drugs such as ethanol can be found in Hoffman, P. L., et al., Life Sciences, 41 611–619 (1987), the relevant disclosures of which are incorporated herein by reference.
The amount of time the mice remained on the rotarod during their last trial was used as their “base-line” score. The mice were then treated with saline (n=10) or 50 mg/kg (±)HA-966 (n=5). The length of time the mice remained on the rotarod was redetermined at 15, 30, 60, 90, and 120 min after drug injection (i.p.). Results for each mouse at each time point were expressed as a ratio (percentage) of their pre-injection base-line time.

[2] = biological target: T1, strychnine-insensitive glycine binding site on the NMDA receptor (Rattus norvegicus, UniProt P35439); test: [3H]5,7-DCKA binding to rat cortical membranes; details: 20 nM [3H]5,7-DCKA
T1 construct: from tissue; host or cells: rat cerebral cortex, crude synaptic (buffy coat) membranes
Method: Male Sprague-Dawley rats were killed, their brains removed, and their cerebral cortices dissected and binding of [^3H]5,7-dichlorokynurenate ([^3H]5,7-DCKA) assayed. [^3H]5,7-DCKA binding assays were performed in crude synaptic membranes prepared by a modification of the method of Jones, et al., J. Pharmacol. Methods, 21 161–168 (1989) the relevant disclosures of which are incorporated herein by reference. The pelleted “buffy coat”fraction was obtained by centrifugation and frozen at about −80° C. for at least 18 hours. On the day that the binding assays were performed, the pelleted membranes were resuspended in 50 mM HEPES-KOH buffer (pH 7.8) containing 0.08% TRITON® X-100. After stirring for about 30 min at about 4° C., the membranes were pelleted by recentrifugation and then washed twice by resuspension in buffer and centrifugation.
Binding assays were performed in 0.5 ml volume using 150–200 μg of tissue, 20 nM [^3H]5,7-DCKA and 3–300 μM DCUKA or MeO-DCUKA or 1–100 μM DCUK-OMe (all concentrations are final concentrations in 0.6% dimethyl sulfoxide (DMSO)). Incubations were performed for about 45 min at about 4° C. followed by termination by centrifugation. Bound radioactivity was quantitated by liquid scintillation spectroscopy. Non-specific binding was defined with 1 mM glycine.

[3] = biological target: voltage-sensitive sodium channels; test: [3H]BTX binding to rat cortical synaptosomes
[4] = biological target: T2, NR1a/NR2A recombinant receptors (Homo sapiens, UniProt Q05586); test: NMDA-induced currents in oocytes expressing NR1a/NR2A; type: cell-based; details: 100 μM NMDA, 50 μM DCUKA, increasing glycine up to 100 μM
T2 construct: expressed in transfected cells; host or cells: Xenopus laevis oocytes, nuclear cDNA injection
Method: (§1) Oocytes were obtained from Xenopus laevis frogs (Nasco or Xenopus I) kept in aquarium tanks at 19–21° C., on a 12 hr light/dark cycle. Mature females were anesthetized by immersion for approximately 30 min in a 0.12% 3-aminobenzoic acid ethyl ester solution, a small incision was made in the abdominal wall and a piece of ovary was removed and placed in Modified Barth's solution (MBS; in mM) containing 88 NaCl, 1 KCl, 10 HEPES, 0.82 MgSO4, 2.4 NaHCO3, 0.91 CaCl2, 0.33 Ca(NO3)2 (pH 7.5). To facilitate manual dissection of oocytes, a section of ovary was transferred from MBS to a hypertonic buffer containing 108 mM NaCl, 2 mM KCl, 2 mM EDTA, 10 mM HEPES, pH 7.5 and theca and epithelial layers of mature oocytes (stages V and VI) were removed with surgical forceps. The follicular layer was removed by a 10 min immersion in 0.5 mg/ml of collagenase in buffer containing 83 mM NaCl, 2 mM KCl, 1 mM MgCl2 and 5 mM HEPES.
(§2) Human NR1a, NR2A and NR2B cDNAs in pCDNA-1Amp were transformed and amplified in XL-1 Blue cells and purified with the MaxPrep Qiagen kit. Oocytes were injected with cDNA into the nucleus in the following concentrations: NR1a/2A cDNAs 0.75 ng/30 nl 1:1 ratio, NR1a/2B cDNAs 3.0 ng/30 nl: 1:1 ratio. Injections were made with micropipettes (10 μm tip diameter) connected to a Drummond micropipettor attached to a micromanipulator. After injection, oocytes were individually placed in wells of 96-well microtiter plates containing incubation medium (MBS supplemented with 10 mg/l streptomycin, 10,000 U/l penicillin G, 50 mg/l gentamicin, 2 mM sodium pyruvate, 0.5 mM theophylline) that had been sterilized by passage through a […]. Oocytes were incubated at 19° C. for 2 to 4 days after injection.
(§3) Oocytes were placed in a rectangular chamber (approximately […]) and perfused (2 ml/min) with frog Ringer (in mM) containing 115 NaCl, 2.5 KCl, 1.8 CaCl2, 10 HEPES (pH 7.2). […] Control responses were always measured before and after addition of the DCUKA. […] Data are expressed as the % inhibition of the agonist response obtained in the absence of the drug.

[5] = biological target: T3, NR1a/NR2B recombinant receptors (Homo sapiens, UniProt Q05586); test: NMDA-induced currents in oocytes expressing NR1a/NR2B; type: cell-based; details: 100 μM NMDA, 50 μM DCUKA, increasing glycine
T3 construct: expressed in transfected cells; host or cells: Xenopus laevis oocytes, nuclear cDNA injection
Method: as §1, §2, §3

[6] = biological target: T1, strychnine-insensitive glycine binding site on the NMDA receptor; details: none* = no displacement at 64 μM carbamazepine; taken from McCabe et al. 1993; cited from earlier work
[7] = test system: heat shock protein (HSP72) in the hippocampus of C57BL/6 mice; test: KA-induced increase in HSP72, Western blot; type: in vivo; details: 100 mg/kg i.p. 30 min before KA 30 mg/kg i.p., hippocampus at 24 hours
Method: See, for example, Gonzales, M. F. et al., “HEAT SHOCK PROTEINS AS MARKERS OF NEURAL INJURY,” Mol. Brain Res., 6 93–100 (1989), the relevant portions of which are incorporated herein by reference.
Groups of male C57BL/6 mice separately received either (1) no injections (Naive), (2) KA injections (30 mg/kg, i.p.), (3) 100 mg/kg MeO-DCUKA administered intraperitoneally, or (4) a pretreatment of 100 mg/kg MeO-DCUKA administered (vehicle as in Example 9) intraperitoneally about 30 minutes before receiving an injection of KA (30 mg/kg, i.p.). All of the mice were killed 24 hours later, their brains removed and the hippocampus dissected. HSP72 protein levels were determined in sodium dodecylsulfate (SDS)-solubilized hippocampal lysates by SDS-PAGE electrophoretic separation and subsequent Western blot analysis using antibodies specific for HSP72/73 proteins. Immunoreactive bands were visualized on film using enhanced chemiluminescence and quantitated by image analysis.

Swiss-Webster mice = test: Ethanol-induced loss of righting reflex; type: in vivo; details: i.p. 30 minutes before ethanol; DCUK-OMe 100 mg/kg, DZP 1 mg/kg
Method: Swiss-Webster mice were pretreated (i.p.) with 100 mg/kg DCUK-OMe or 1 mg/kg diazepam (DZP) (in 5% Tween-80, 20% Intralipid) 30 minutes before receiving an i.p. administration of ethanol (either 2.3 or 3.2 g/kg, 20% v/v in saline.). The duration of the ethanol-induced loss of righting reflex (defined as the inability of the mouse to right itself when placed on its back in a trough) was measured. […] Since withdrawal signs are many times evident in individuals whose blood ethanol levels are dropping but are far from zero, the DCUK compounds would have an advantage over DZP in that the CNS depressant effects of ethanol would not be accentuated by DCUK compounds if the DCUK compounds are used in an alcohol-intoxicated individual.

naive Swiss-Webster mice = test: Accelerating rotarod, Swiss-Webster mice; details: i.p.; DCUK-OMe 100 or 500 mg/kg, diazepam 1 mg/kg, carbamazepine 50 mg/kg
[8] = depolarizing conditions (135 mM KCl), read-out: IC50 (μM) [3H]BTX binding, values in parentheses
[9] = non-depolarizing conditions, none = no displacement at 100 μM, read-out: IC50 (μM) [3H]BTX binding

SMILES	ethanol withdrawal seizure severity [1]	IC50 [2] [µM]	IC50 [3, 8] [µM]	IC50 [3, 9] [µM]	further results
NC1CCN(O)C1=O (racemic) [(±)HA-966, 3-amino-1-hydroxypyrrolidin-2-one]	did not significantly reduce seizure severity				rotarod performance (ataxia/incoordination) (naive C57BL/6 mice): impaired in their ability to remain on the rotarod at all time points tested
O=C(O)c1cc(=O)c2c(Cl)cc(Cl)cc2[nH]1 [5,7-DCKA, 5,7-dichlorokynurenate, reference compound]		0.11			IC50 (μM) [3H]BTX binding ([3]; non-depolarizing conditions, none = no displacement at 100 μM): none; reversal by glycine of inhibition of NMDA-induced currents [4]: competitively antagonizes NMDA receptors regardless of subunit composition; reversal by glycine of inhibition of NMDA-induced currents [5]: competitively antagonizes NMDA receptors regardless of subunit composition
O=C(O)c1cc(O)c2ccc(Cl)cc2n1 [7-Cl kynurenic acid]	did not significantly reduce seizure severity				
NC(=O)N1c2ccccc2C=Cc2ccccc21 [Carbamazepine, carbamazepine, reference compound]	no significant reduction of severity or the duration of the signs of withdrawal		56	71	IC50 (μM) [3H]5,7-DCKA binding [6]: none*
COc1ccccc1N(C(=O)Nc1cc(C(=O)O)nc2cc(Cl)cc(Cl)c12)c1ccccc1 [MeO-DCUKA]		35	30	64	KA-induced increase in HSP72 protein levels [7]: prevented
CN1C(=O)CN=C(c2ccccc2)c2cc(Cl)ccc21 [diazepam, reference compound]					duration of ethanol-induced loss of righting reflex (LORR) (Swiss-Webster mice): significant (*P<0.05) enhancement; rotarod performance (ataxia/incoordination) (naive Swiss-Webster mice): produced significant incoordination

— US6962930B1, “Compounds, compositions and method suitable for amelioration of withdrawal syndromes and withdrawal-induced brain damage” (Lohocla Research Corporation, priority 1997, dated 2005)
